Data taken from patent US12570606B2, “Myeloperoxidase imaging agents” (The General Hospital Corporation, priority 2016, dated 2026).
Counter-ions that a name gives are not always drawn. Like-named read-outs stand apart in the source and are kept apart here. Each block holds one molecule with its values, some of them ahead of it.

Key:
MPO [1] = molecular target: T1, MPO (Homo sapiens, UniProt P05164); conditions: in vitro; cited from earlier work
T1 sequence (P05164 49-745): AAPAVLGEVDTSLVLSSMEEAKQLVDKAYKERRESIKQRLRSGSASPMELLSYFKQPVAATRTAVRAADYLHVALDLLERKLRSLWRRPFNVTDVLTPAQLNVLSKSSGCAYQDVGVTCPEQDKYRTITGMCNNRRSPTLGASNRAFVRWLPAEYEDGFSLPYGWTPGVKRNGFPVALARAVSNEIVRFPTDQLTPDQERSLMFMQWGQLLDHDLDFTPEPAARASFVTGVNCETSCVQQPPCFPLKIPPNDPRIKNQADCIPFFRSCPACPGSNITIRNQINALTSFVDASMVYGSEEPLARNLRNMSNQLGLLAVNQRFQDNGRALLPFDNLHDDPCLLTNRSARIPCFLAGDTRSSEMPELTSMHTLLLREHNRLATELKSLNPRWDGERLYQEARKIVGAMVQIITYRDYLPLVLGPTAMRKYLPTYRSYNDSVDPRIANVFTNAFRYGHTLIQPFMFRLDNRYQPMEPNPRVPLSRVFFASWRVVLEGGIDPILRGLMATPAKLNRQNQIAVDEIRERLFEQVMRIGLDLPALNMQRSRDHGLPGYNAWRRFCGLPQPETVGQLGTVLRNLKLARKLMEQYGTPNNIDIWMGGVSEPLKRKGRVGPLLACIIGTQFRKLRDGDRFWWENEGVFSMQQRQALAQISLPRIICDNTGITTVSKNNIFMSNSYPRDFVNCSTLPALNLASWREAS

MPO [2] = molecular target: T1, MPO; set-up: host or cells: transgenic mice overexpressing human MPO; conditions: in vivo, transgenic mice with overexpression of human MPO; cited from earlier work
[3] = Solubility of the hydrochloric acid salt; assay type: physicochemical; conditions: hydrochloric acid salt after Boc de-protection with 1M HCl
MPO [4] = molecular target: T1, MPO; assay: In vitro color change (oligomerization) with MPO; assay type: biochemical; conditions: 2 mM, 37° C., 1 hr
Procedure: (§1) Each vial contains 2 mM of ^19F compound 9 in PBS (150 uL, 5% DMSO) and the following agents, and was incubated at 37° C. for 1 hr: • Vial 1: control (2 mM 19F […] only) • Vial 2: Glucose (6 μL, 1M), GOX (4 μL, 1 mg/mL); • Vial 3: H2O2 (2 μL), HRP (horseradish peroxidase, 1 μL); • Vial 4: H2O2(2 μL), MPO (10 μL): • Vial 5: H2O2 (2 μL), MPO (10 μL);

[5] = tested on: HRP (horseradish peroxidase); assay: In vitro color change (oligomerization) with horseradish peroxidase; assay type: biochemical; conditions: Vial 3: H2O2, HRP; 2 mM, 37° C., 1 hr
Procedure: as §1

MPO activity [6] = molecular target: T2, MPO activity (Mus musculus, UniProt P11247); assay: Staining of fresh-frozen ex vivo brain sections with Compound 3 and SA-647; conditions: Compound 3 followed by SA-647
T2 construct: from tissue; host or cells: C57Bl/6J mice: PMA-treated hind-paw, salmonella brain abscess (slices and frozen sections), S. pneumoniae cellulitis of the thigh
T2 sequence (P11247 139-718): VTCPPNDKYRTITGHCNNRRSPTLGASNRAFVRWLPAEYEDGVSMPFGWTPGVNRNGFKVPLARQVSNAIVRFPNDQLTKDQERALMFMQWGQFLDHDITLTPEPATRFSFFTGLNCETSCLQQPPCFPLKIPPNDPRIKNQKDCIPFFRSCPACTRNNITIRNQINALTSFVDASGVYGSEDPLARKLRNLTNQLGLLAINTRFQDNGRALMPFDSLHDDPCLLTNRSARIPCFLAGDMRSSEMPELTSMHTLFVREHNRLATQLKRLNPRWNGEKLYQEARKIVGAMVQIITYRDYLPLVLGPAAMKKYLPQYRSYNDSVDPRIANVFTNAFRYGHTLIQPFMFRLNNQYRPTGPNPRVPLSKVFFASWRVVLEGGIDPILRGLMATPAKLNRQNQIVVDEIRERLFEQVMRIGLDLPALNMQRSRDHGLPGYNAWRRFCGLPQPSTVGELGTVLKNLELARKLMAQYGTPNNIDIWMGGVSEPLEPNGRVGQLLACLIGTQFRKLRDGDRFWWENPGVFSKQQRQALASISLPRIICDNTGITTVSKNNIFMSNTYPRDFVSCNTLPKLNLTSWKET
Procedure: (§2) Female C57Bl/6J mice were then anesthetized and fixed in a stereotactic head frame (David Kopf Instruments, Tujunga, Calif.). 1-3×10^6 colony forming units (CFU) salmonella bacteria (ATCC #14028) were suspended in 2 μL PBS and slowly injected into the deep frontal white matter (2.0 mm lateral and 1.2 mm anterior to bregma) at a depth of 3.0 mm. 23 hours later, mice were injected intravenously with 2 nmol Compound 3 as above, followed by intravenous injection of SA-647. Mice were then anesthetized with Isoflurane and transcardially perfused with 20 mL of ice cold PBS. Brains were harvested and cut into 1 mm coronal slices using a brain slicer (Harvard Apparatus, Holliston, Mass.) and immediately underwent FRI as described above. Brains from mice injected with salmonella were also embedded in OCT (Sakura, Torrance, Calif.) and snap-frozen in chilled isopentane (Sigma) and stored at […] until sectioning. Serial 6 μm sections were cut on a cryostat (Thermo scientific). Sections were thawed at room temperature for 10-20 minutes and rehydrated in PBS for 10 minutes. Then sections were incubated in blocking buffer (1% horse serum in PBS) for 30 minutes at room temperature, and incubated with MPO specific probe diluted in incubation buffer (1% bovine serum albumin 1% normal donkey serum, 0.3% Triton X-100, and 0.01% sodium azide in PBS) overnight at 4° C. […]

MPO activity [7] = molecular target: T2, MPO activity; assay: Brain abscess (salmonella), ex vivo FRI of coronal brain slices; assay type: in vivo; conditions: probe at 23 hours
Procedure: as §2

MPO activity [8] = molecular target: T2, MPO activity; assay: Bacterial cellulitis (Streptococcus pneumoniae), in vivo FRI of neutrophil extracellular traps
Procedure: Female C57Bl/6J mice were injected subcutaneously at the dorsal aspect of the thigh with 10^8 CFU of Streptococcus pneumonia (SPn, ATCC #6303) to induce bacterial cellulitis. 6 hours after induction, mice were injected intravenously with 2 nmol of […]. 1 hour later, 2.5 μg Strepavidin-AlexaFluor-647 were injected intravenously to bind to the biotinylated Compound 3. To distinguish neutrophil granule release (where MPO and other granule proteins are secreted into the phagosome or extracellular space) from NET formation (where chromatin strands with MPO are released by neutrophils), 1 μg of the membrane-impermeable DNA dye Sytox Green (Invitrogen) was injected intravenously at the same time. Mice then underwent in vivo imaging using a dedicated FRI system as described above in Example 11. AlexaFluor-647 bound to MPO-sensor was detected at 595-635 nm excitation and 675/50 nm emission. Sytox Green was detected at 460-490 nm excitation and 530/40 nm emission.

MPO activity [9] = assay: Irritant contact dermatitis (PMA) in vivo FRI; set-up: species or system mouse
Procedure: Female C57Bl/6J (wildtype, Jackson laboratories, Bar Harbor, Me.) and MPO-knockout (KO, Jackson laboratories) mice were treated topically with 0.08 μmol Phorbol 12-myristate 13-acetate (PMA, Sigma, St. Louis, Mo.) on one hind-paw and with vehicle on the other to induce irritant contact dermatitis. This model is well described in the literature and triggers rapid inflammation with influx of neutrophils into the skin. 6 hours after induction, mice were injected intravenously with either 2 nmol of Compound 3 or the non-specific analogue, Compound 18. 1 hour later, 2.5 μg SA-647 was injected intravenously to bind to the biotinylated Compound 3. Mice underwent in vivo imaging using a dedicated in vivo FRI system as described above in Example 11.

purified human MPO = molecular target: T3, purified human MPO (Homo sapiens, UniProt P05164); assay: Fluorescence molecular tomography (FMT) of MPO embedded in matrigel, sensitivity; assay type: in vivo, mouse; conditions: 2 nmol i.v. then SA-647, matrigel in thigh
T3 construct: purchased Lee Biosolutions, St. Louis, Mo
T3 sequence (P05164 49-745): T1 sequence (P05164 49-745)
Excerpt: (§3) Four to ten weeks old female C57BL/6J or MPO-knockout mice (from Jackson Laboratories, Bar Harbor, Me.) were used for all animal experiments. Mice were fed biotin free diet for 5 days before imaging with fluorescence molecular tomography (FMT) or fluorescence […] imaging (FRI).
To validate sensitivity of the Compound 3, different concentrations of purified human MPO (Lee Biosolutions, St. Louis, Mo.) and glucose oxidase (GOX, as a H2O2 donor, Affymetrix, Santa Clara, Calif.) were embedded in a mixture of matrigel (BD Bioscience, San Jose, Calif.) and minimal essential medium (MEM, Corning, Corning, N.Y.), and injected 400 μL of this mixture subcutaneously into the ventral aspect of the thigh. After 30 min, 2 nmol of Compound 3 in 100 μL phosphate buffered saline (PBS) was injected intravenously. One hour later, 25 μL of streptavidin AlexaFluor-647 (2 mg/mL, SA-647, Invitrogen, Carlsbad, Calif.) was injected intravenously, and FMT was performed every 15 minutes for a total of 60 minutes. Mice were imaged on a dedicated FMT system (Perkin Elmer, Waltham, Mass.) at 635 nm excitation and 655 nm emission.

MPO [10] = molecular target: T1, MPO; assay: Fluorescence reflectance imaging (FRI) of GOX/MPO/ABAH in matrigel, specificity; assay type: in vivo, mouse; conditions: 2 nmol i.v. then SA-647
Excerpt: as §3

MPO [11] = molecular target: T4, MPO (Mus musculus, UniProt P11247); assay: CNR of Compound 3 in dermatitis, CNS abscess and cellulitis models; assay type: in vivo; set-up: from tissue; conditions: detection of dermatitis
T4 sequence (P11247 139-718): T2 sequence (P11247 139-718)

Molecule: sulfonaphthoaminophenyl fluorescein [SNAPF]
- CNR (MPO [1]): around 1.4
- CNR (MPO [2]): ~1.6

- Solubility [3]: increased solubility
Molecule: CN(C)CCCC[C@H](NC(=O)[C@H](Cc1c[nH]c2ccc(O)cc12)NC(=O)Cc1c[nH]c2ccc(O)cc12)C(=O)NCCOCCOCC[18F] [Example 18, (S)-6-(dimethylamino)-N-(2-(2-(2-fluoro-^18F)ethoxy)ethoxy)ethyl)-2-((S)-3-(5-hydroxy-1H-indol-3-yl)-2-(2-(5-hydroxy-1H-indol-3-yl)acetamido)propanamido)hexanamide hydrochloric acid salt]

- Color change (MPO [4]; Vial 2: Glucose, GOX, no MPO): no color change
- Color change (MPO [4]; Vials 4 and 5: H2O2, MPO): turned to yellow or brown
- Color change [5]: turned to yellow or brown
Molecule: O=C(Cc1c[nH]c2ccc(O)cc12)N[C@@H](Cc1c[nH]c2ccc(O)cc12)C(=O)NCCOCCOCCF [Compound 8, (S)—N-(2-(2-(2-fluoroethoxy)ethoxy)ethyl)-3-(5-hydroxy-1H-indol-3-yl)-2-(2-(5-hydroxy-1H-indol-3-yl)acetamido)propanamide]

Molecule: O=C(CCCC[C@@H]1SC[C@@H]2NC(=O)N[C@@H]21)N[C@@H](Cc1c[nH]c2ccc(O)cc12)C(=O)NCCc1c[nH]c2ccc(O)cc12 [Compound 3, N—((S)-3-(5-hydroxy-1H-indol-3-yl)-1-((2-(5-hydroxy-1H-indol-3-yl)ethyl)amino)-1-oxopropan-2-yl)-5-((3aS,4S,6aR)-2-oxohexahydro-1H-thieno[3,4-d]imidazol-4-yl)pentanamide]
- Fluorescent signal on abscess and control sections (MPO activity [6]): increased fluorescent signal consistent with MPO activity in the ipsilateral hemisphere but not the contralateral hemisphere
- Fluorescence intensity, contralateral hemisphere (mean value) (MPO activity [7]): 10972 RFU
- Fluorescence intensity, ipsilateral hemisphere (mean value) (MPO activity [7]): 43242 RFU
- Fluorescence signal, side injected with PBS (MPO activity [8]; contralateral thigh): 49.4±15.5 RFUs
- Fluorescence signal, side injected with SPn (MPO activity [8]; thigh, 6 hours after induction): 212.5±22.9 RFU
- Fluorescence intensity, PMA-treated hind-paw (MPO activity [9]; MPO-KO mice): 36.9±9.8 RFU
- Fluorescence intensity, vehicle-treated hind-paw (MPO activity [9]; MPO-KO mice): 43.9±10.8 RFU
- Fluorescence intensity, PMA-treated hind-paw (MPO activity [9]; wildtype mice): 130.5±4.7 RFU
- Fluorescence intensity, vehicle-treated hind-paw (MPO activity [9]; wildtype mice): 34.4±8.6 RFU
- FMT fluorescence signal versus MPO concentration (purified human MPO): linear increase in signal
- FRI fluorescence signal in absence of both MPO and GOX (MPO [10]): no appreciable fluorescence
- FRI fluorescence signal with MPO and GOX in matrigel (MPO [10]): increased fluorescent signal
- FRI fluorescence signal with MPO but without GOX (MPO [10]): no fluorescence was detectible
- CNR (MPO [11]): approximately 4
